Consider three compounds from patent publication US20040192697A1, “Pyrrolopyridine potassium channel openers” (priority 2002, published 2004).

Data set [1] has as its system Landrace pig bladder strips. The experiment in a line: In vitro functional model: field-stimulated bladder tissue strips. The conditions noted are these: dose dependent over concentration range of 10^−9 to 10^−5 M; control agonist. The procedure: In vitro Functional Model
Compounds were evaluated for functional BK channel opening activity using tissue strips obtained from Landrace pig bladders. Landrace pig bladders were obtained from female Landrace pigs of 9-30 kg. Landrace pigs were euthanized with an intraperitoneal injection of pentobarbital solution, Somlethal®, J. A. Webster Inc., Sterling Mass. The entire bladder was removed and immediately placed into Krebs Ringer bicarbonate solution (composition, mM: NaCl, 120; NaHCO3, 20; dextrose, 11; KCl, 4.7; CaCl2, 2.5; MgSO4, 1.5; KH2PO4, 1.2; K2EDTA, 0.01, equilibrated with 5% CO2/95% O2 pH 7.4 at 37° C.). Propranolol (0.004 mM) was included in all of the assays to block β-adrenoceptors. The trigonal and dome portions were discarded. Strips 3-5 mm wide and 20 mm long were prepared from the remaining tissue cut in a circular fashion. The mucosal layer was removed. One end was fixed to a stationary glass rod and the other to a Grass FT03 transducer at a basal preload of 1.0 gram. Two parallel platinum electrodes were included in the stationary glass rod to provide field stimulation of 0.05 Hz, 0.5 milli-seconds at 20 volts. […] The maximal efficacy of each compound (expressed as % relative to P1075) is reported. […] Agonist potencies were also expressed as an index relative to P1075. The index was calculated by dividing the ED50 for P1075 by the ED50 for the test agonist in a given tissue. […]

Turning to `N#Cc1c(N2CCC[C@H]2CO)[nH]c2cccnc12` [Example 10, (S)-2-(2-Hydroxymethyl-pyrrolidin-1-yl)-1H-pyrrolo[3,2-b]pyridine-3-carbonitrile], the melting point fell in the range of 207 to 209 °C. With `N#Cc1c(N2CCCCC2)[nH]c2cccnc12` [Example 18, 2-Piperidin-1-yl-1H-pyrrolo[3,2-b]pyridine-3-carbonitrile], the melting point fell in the range of 241 to 242 °C. For the compound `CCC(C)(C)N=C(NC#N)Nc1cccnc1` [Example P1075], in data set [1], the “effect on stimulated twitch of bladder strips” value is recorded as “completely eliminated the stimulated twitch”.

As usually defined, the melting point is the temperature, or range, at which the solid turns liquid.
